Data taken from patent EP0117797A1, “Nitroso ureas, process for their preparation and their therapeutic use” (CENTRE NATIONAL DE LA RECHERCHE SCIENTIFIQUE, priority 1983, dated 1984).

Key:
Acute toxicity (DL50) = settings: mouse, in vivo
[1] = tested on: cellules de leucémie L 1210; assay: Oncostatic activity against L 1210 leukaemia (i.p.) in mice, survival T/C; assay type: in vivo, souris F1, (DBA/2XC57 B 1/6); settings: for Dose optimale / T/C max / M.E.D.I. / efficacité (comparison in words): L 1210 i.p.; for T/C max: treated days 1, 5 and 9, suspension in oil, T/C = ∞ when 50 % of the animals are cured, T/C > 125 % = active; for M.E.D.I.: dose plateau of maximum activity corresponding to T/C = ∞; for I = DL50 / D.Opt.: therapeutic index, DL50 divided by optimal dose; for efficacité (comparison in words): 2-chloro-éthylamides compared with the known -NH2 amides (N° 10, 14 et 16)
Excerpt: L'activité oncostatique de certains composés de l'invention par comparaison à d'autres nitrosourées connues a été déterminée en suivant le protocole expérimental suivant : • Des souris F1, (DBA/2XC57 B 1/6) sont inoculées avec 10^5 cellules de leucémie L 1210 par voie intrapéritonéale au jour 0 et divisées en 5 groupes. Le premier est le groupe de contrôle et les quatre autres sont traités avec les produits à tester à différentes concentrations, aux jours 1,5 et 9. Les composés sont injectés en suspension dans l'huile. La mortalité des animaux est observée et l'autopsie indique si elle est due à la leucémie ou à l'action toxique de la drogue. Les résultats, pour chaque dose de produit, sont exprimés en T/C (%) (T représente la médiane de survie du groupe traité et C la médiane de survie du groupe témoin T/C = ∞ quand 50 % des animaux sont guéris. T/C > 125 % signifie qu'une drogue est active.
Ces essais ont été effectués à l'aide de composés de formule [formula] pour différents amino-acides et différentes significations du substituant X (substituant côté C terminal).
Les significations de X sont les suivantes : • 1) Composés de l'invention : X = -NH-CH2-CH2Cl, -N(CH2-CH2-Cl)2 et -NH-C6H4-N(CH2-CH2-Cl)2 • 2) Composés en dehors de l'invention : X = -NH2 et -NH-C^H3.
Le tableau précédent rapporte les valeurs DL50, T/C, M.E.D.I. (Maximum efficace dose internal = plateau d'activité maximum correspondant à T/C = ∞), dose optimale et Indice thérapeutique.

SMILES | LD50 (Acute toxicity (DL50)) | Dose optimale [1] | T/C max [1] | M.E.D.I. [1] | I = DL50 / D.Opt. [1] | DL50 (Acute toxicity (DL50)) | efficacité (comparison in words) [1]
C[C@H](NC(=O)N(CCCl)N=O)C(=O)NCCCl [compound 1] | 35 mg/kg | 20 mg/kg | ∞ | 10 to 30 mg/kg | 1,75 |  | 
O=NN(CCCl)C(=O)NCCC(=O)NCCCl [compound 2] |  | 35 mg/kg | ∞ | 20 to 50 mg/kg | 2,86 | 100 mg/kg | 
O=NN(CCCl)C(=O)N[C@@H](CC(=O)NCCCl)C(=O)NCCCl [compound 3] | 130 mg/kg | 37 mg/kg | ∞ | 25 to 50 mg/kg | 3,50 |  | 
O=NN(CCCl)C(=O)NCCCC(=O)NCCCl [compound 7] |  | 35 mg/kg | ∞ | 20 to 50 mg/kg | 3,57 | 125 mg/kg | 
CC(C)C[C@H](NC(=O)N(CCCl)N=O)C(=O)NCCCl [compound 9] | 64 mg/kg | 35 mg/kg | ∞ | 15 to 50 mg/kg | 1,80 |  | beaucoup plus efficaces
O=NN(CCCl)C(=O)NCCCC[C@H](NC(=O)N(CCCl)N=O)C(=O)NCCCl [compound 12] | 135 mg/kg | 30 mg/kg | ∞ | 20 to 40 mg/kg | 4,50 |  | 
CSCC[C@H](NC(=O)N(CCCl)N=O)C(=O)NCCCl [compound 13] | 32 mg/kg | 20 mg/kg | ∞ | 10 to 30 mg/kg | 1,60 |  | beaucoup plus efficaces
